{"source": "patent US20120213805A1", "about": "“Amatoxin-Armed Tartget-Binding Moieties for the Treatment of Cancer” (priority 2009, published 2012)", "molecules": {"B1": {"name": "chimeric antibody huHEA125 (antibody, human IgG1, kappa, V domains shown)", "VH": "EVKLLESGGGLVQPGGSLKLSCAASGFDFSRFWMTWVRQAPGKGLEWIGEINLDSSTINYTPSLKDKFIISRDNAKNTLFLQMSKVRSEDTALYYCSRGISMDYWGQGTSVTVSS", "VL": "DILLTQSPAILSVSPGERVSFSCRASQSIGISLHWYQQRPSDSPRLLIKYASESISGIPSRFSGSGSGTDFTLSINSVESEDIADYYCQQSNIWPTTFGAGTKLELKR", "notes": "also called unmodified huHEA125 antibody; non-conjugated huHEA125 antibody"}}, "key": {"RNA-polymerase II": {"biological_target": "RNA-polymerase II (Homo sapiens, UniProt P24928)", "conditions": "not covalently bound; read-out: KD of complex between amanitin and RNA-polymerase II; cited from earlier work"}, "PC-3 tumor xenografts": {"test_system": "PC-3 tumor xenografts", "test": "PC-3 xenograft mouse tumor model", "type": "in vivo, NOD/SCID mice", "experimental": "(§1) Five- to six-week old immunodeficient NOD/SCID mice were used for all experiments. BxPC-3 pancreatic or PC-3 prostate tumor cells (5×10^6 in 100 pi PBS) were transplanted subcutaneously to the right flank of the mice. Ten days later, when BxPC-3 tumors reached a volume of 30-80 mm^3 and PC-3 tumors reached a volume of 40-190 mm^3, the treatment was initiated. Animals received either control huHEA125 mAb at a dose of 15 mg/kg or huHEA125-amanitin conjugate (huHEA125-Ama) at a dose of 50 μg/kg of amanitin. Antibody and conjugate were administered as a single intraperitoneal injection.\n(§2) Tumor growth was monitored for 16 days after initiation of the treatment. Tumor size was measured externally every third day using a caliper. Tumor volume was calculated according to the formula: V=π/6*a*b*c, where a, b and c are diameters in three dimensions. Data are presented as a relative tumor size/volume increase from the time of antibody administration."}, "BxPC-3 tumor xenografts": {"test_system": "BxPC-3 tumor xenografts", "test": "BxPC-3 xenograft mouse tumor model", "type": "in vivo, NOD/SCID mice", "experimental": "as §1, §2"}, "[1]": {"biological_target": "T1, epithelial cell adhesion molecule (EpCAM) (human, UniProt P16422 24-314)", "T1 construct": "whole, on cells; also called CD326; EpCAM antigen", "T1 sequence (looked up)": "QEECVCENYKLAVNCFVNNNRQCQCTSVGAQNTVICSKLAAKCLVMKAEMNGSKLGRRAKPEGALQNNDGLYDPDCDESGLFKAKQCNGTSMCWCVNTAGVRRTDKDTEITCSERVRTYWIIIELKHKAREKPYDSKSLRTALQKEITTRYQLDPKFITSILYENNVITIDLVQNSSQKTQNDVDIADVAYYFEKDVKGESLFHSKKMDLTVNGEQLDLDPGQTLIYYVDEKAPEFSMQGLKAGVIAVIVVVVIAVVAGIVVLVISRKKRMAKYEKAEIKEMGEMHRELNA", "test": "binding to EpCAM-expressing cells; method not stated"}, "[2]": {"conditions": "50 μg/kg of amanitin, single i.p. injection, PC-3 tumor bearing mice"}, "[3]": {"conditions": "50 μg/kg of amanitin, single i.p. injection, BxPC-3"}}}
{"molecule": "amanitin", "values": [{"measurement": "Kd", "setting": "RNA-polymerase II", "result": 3, "unit": "nM"}]}
{"molecule": "huHEA125: chimeric anti-EpCAM antibody: mouse HEA125 variable domains with human kappa constant light chain and human IgG1 constant heavy chain", "values": [{"measurement": "tumor volume increase", "setting": "PC-3 tumor xenografts; 15 mg/kg single i.p. injection, day 10, PC-3, FIG. 10", "result": "approximately 550%"}, {"measurement": "tumor volume increase", "setting": "BxPC-3 tumor xenografts; 15 mg/kg single i.p. injection, day 16, BxPC-3, FIG. 9", "result": "approximately 880%"}]}
{"molecule": "α-Amanitin-glutarate-huHEA125 [huHEA125-amanitin]", "values": [{"measurement": "tumor growth", "setting": "PC-3 tumor xenografts; 50 μg/kg of amanitin, single i.p. injection, PC-3", "result": "strongly retarded"}, {"measurement": "body weight of the mice", "setting": "PC-3 tumor xenografts; [2]", "result": "No decrease in the body weight"}, {"measurement": "tolerability", "setting": "PC-3 tumor xenografts; [2]", "result": "well tolerated"}, {"measurement": "day from which tumor volume regressed dramatically", "setting": "BxPC-3 tumor xenografts; [3]", "result": 7, "unit": "days"}, {"measurement": "mice responding to treatment", "setting": "BxPC-3 tumor xenografts; [3]", "result": "All mice responded to treatment"}, {"measurement": "tumor growth", "setting": "BxPC-3 tumor xenografts; [3]", "result": "strongly inhibited"}, {"measurement": "body weight of the mice", "setting": "BxPC-3 tumor xenografts; 50 μg/kg of amanitin, single i.p. injection, BxPC-3 tumor bearing mice", "result": "neither a decrease in body weight"}, {"measurement": "mice with tumor completely eradicated", "setting": "BxPC-3 tumor xenografts; 50 μg/kg of amanitin, single i.p. injection, day 16, BxPC-3", "result": 50, "unit": "%"}, {"measurement": "tolerability", "setting": "BxPC-3 tumor xenografts; 50 μg/kg of amanitin, single intraperitoneal injection, BxPC-3 tumor bearing mice", "result": "well tolerated"}]}
{"molecule": "B1", "values": [{"measurement": "Kd", "setting": "[1]", "result": 2.2, "unit": "nM"}]}
